Article PMC5218480 (PLoS ONE, 2017)

Test system: MV-4-11 cells
Assay: Gene expression microarray analysis (Affymetrix PrimeView) and GSEA
Format: cell-based, human
Design: RFU PODN (11730768_x_at) / Fold change /veh PODN (11730768_x_at) / RFU LINC00158 (11744669_a_at) / Fold change /veh LINC00158 (11744669_a_at) / RFU DUSP10 (11751237_a_at) / Fold change /veh DUSP10 (11751237_a_at) / RFU ID3 (11757404_x_at) / Fold change /veh ID3 (11757404_x_at) / RFU PLEKHG5 (11737974_s_at) / Fold change /veh PLEKHG5 (11737974_s_at) / RFU LRRC4B (11730491_at) / Fold change /veh LRRC4B (11730491_at) / RFU GIMAP4 (11747438_a_at) / Fold change /veh GIMAP4 (11747438_a_at) / RFU KRT8 (11758183_x_at) / Fold change /veh KRT8 (11758183_x_at) / RFU CNN1 (11734310_a_at) / Fold change /veh CNN1 (11734310_a_at) / RFU VPS37D (11726825_at) / Fold change /veh VPS37D (11726825_at) / RFU C10orf10 (11716522_x_at) / Fold change /veh C10orf10 (11716522_x_at) / RFU KIR2DL2 /// KIR2DL4 /// KIR2DL5A /// KIR2DL5B /// KIR2DS1 /// KIR2DS2 /// KIR2DS3 /// KIR2DS4 /// KIR3DL3 /// KIR3DL3 /// KIR3DS1 (11738374_at) / Fold change /veh KIR2DL2 /// KIR2DL4 /// KIR2DL5A /// KIR2DL5B /// KIR2DS1 /// KIR2DS2 /// KIR2DS3 /// KIR2DS4 /// KIR3DL3 /// KIR3DL3 /// KIR3DS1 (11738374_at) / RFU C1QL1 (11718748_at) / Fold change /veh C1QL1 (11718748_at) / RFU TMPRSS4 (11747572_a_at) / Fold change /veh TMPRSS4 (11747572_a_at) / RFU HAMP (11756126_x_at) / Fold change /veh HAMP (11756126_x_at) / RFU RNFT2 (11725882_a_at) / Fold change /veh RNFT2 (11725882_a_at) / RFU NR4A2 (11747474_a_at) / Fold change /veh NR4A2 (11747474_a_at) / RFU ABCC12 (11746883_a_at) / Fold change /veh ABCC12 (11746883_a_at) / RFU TMEM136 (11760407_x_at) / Fold change /veh TMEM136 (11760407_x_at) / RFU CLDN22 /// WWC2 (11732394_at) / Fold change /veh CLDN22 /// WWC2 (11732394_at) / RFU HLA-DPB1 (11760878_x_at) / Fold change /veh HLA-DPB1 (11760878_x_at) / RFU SPINT1 (11716480_a_at) / Fold change /veh SPINT1 (11716480_a_at) / RFU GAP43 (11754022_s_at) / Fold change /veh GAP43 (11754022_s_at) / RFU A4GNT (11735810_at) / Fold change /veh A4GNT (11735810_at) / RFU PRB3 (11715151_x_at) / Fold change /veh PRB3 (11715151_x_at) / RFU TUBB4B (11761932_at) / Fold change /veh TUBB4B (11761932_at) / RFU CAPN14 (11732068_a_at) / Fold change /veh CAPN14 (11732068_a_at) / RFU TMCC2 (11721928_a_at) / Fold change /veh TMCC2 (11721928_a_at) / RFU IRGQ (11745062_a_at) / Fold change /veh IRGQ (11745062_a_at) / RFU FAM174B (11720279_a_at) / Fold change /veh FAM174B (11720279_a_at) / RFU TMPRSS4 (11748680_a_at) / Fold change /veh TMPRSS4 (11748680_a_at) / RFU FAM212B (11763350_a_at) / Fold change /veh FAM212B (11763350_a_at) / RFU PLEKHG5 (11743358_a_at) / Fold change /veh PLEKHG5 (11743358_a_at) / RFU ZSCAN30 (11745921_a_at) / Fold change /veh ZSCAN30 (11745921_a_at) / RFU CMKLR1 (11741424_a_at) / Fold change /veh CMKLR1 (11741424_a_at) / RFU LOC101060620 /// MAPK8IP1 (11723275_at) / Fold change /veh LOC101060620 /// MAPK8IP1 (11723275_at) / RFU SPTSSB (11747773_x_at) / Fold change /veh SPTSSB (11747773_x_at) / RFU PRSS12 (11739890_at) / Fold change /veh PRSS12 (11739890_at) / RFU BIN1 (11741810_x_at) / Fold change /veh BIN1 (11741810_x_at) / RFU WNT11 (11732464_a_at) / Fold change /veh WNT11 (11732464_a_at) / RFU C10orf10 (11716521_a_at) / Fold change /veh C10orf10 (11716521_a_at) / RFU C5orf56 (11738089_at) / Fold change /veh C5orf56 (11738089_at) / RFU CYB561 (11721691_x_at) / Fold change /veh CYB561 (11721691_x_at) / RFU ANKRD19P (11752326_a_at) / Fold change /veh ANKRD19P (11752326_a_at) / RFU OR2T12 /// OR2T33 /// OR2T8 (11738714_s_at) / Fold change /veh OR2T12 /// OR2T33 /// OR2T8 (11738714_s_at) / RFU VCAN (11748164_a_at) / Fold change /veh VCAN (11748164_a_at) / RFU JSRP1 (11732532_at) / Fold change /veh JSRP1 (11732532_at) / RFU KRTAP10-11 (11738290_x_at) / Fold change /veh KRTAP10-11 (11738290_x_at) / RFU MYO3A (11730013_a_at) / Fold change /veh MYO3A (11730013_a_at) / RFU EBF3 (11725865_a_at) / Fold change /veh EBF3 (11725865_a_at) / RFU CAMK2N1 (11719241_x_at) / Fold change /veh CAMK2N1 (11719241_x_at) / RFU C5orf56 (11738088_a_at) / Fold change /veh C5orf56 (11738088_a_at) / RFU OLFML3 (11715873_a_at) / Fold change /veh OLFML3 (11715873_a_at) / RFU LOC100653217 /// NTM (11731650_a_at) / Fold change /veh LOC100653217 /// NTM (11731650_a_at) / RFU MAPK11 (11762145_a_at) / Fold change /veh MAPK11 (11762145_a_at) / RFU FIZ1 (11724087_x_at) / Fold change /veh FIZ1 (11724087_x_at) / RFU OASL (11726364_x_at) / Fold change /veh OASL (11726364_x_at) / RFU SOX15 (11748057_x_at) / Fold change /veh SOX15 (11748057_x_at) / RFU CD79A (11719716_a_at) / Fold change /veh CD79A (11719716_a_at) / RFU HIST1H1D (11736915_at) / Fold change /veh HIST1H1D (11736915_at) / RFU CASKIN2 (11723855_a_at) / Fold change /veh CASKIN2 (11723855_a_at) / RFU LOC730098 (11760151_x_at) / Fold change /veh LOC730098 (11760151_x_at) / RFU OR4N2 (11742367_at) / Fold change /veh OR4N2 (11742367_at) / RFU PRRT2 (11749266_a_at) / Fold change /veh PRRT2 (11749266_a_at) / RFU SNX32 (11753110_a_at) / Fold change /veh SNX32 (11753110_a_at) / RFU CDHR5 (11726645_a_at) / Fold change /veh CDHR5 (11726645_a_at) / RFU RCAN1 (11760418_a_at) / Fold change /veh RCAN1 (11760418_a_at) / RFU FAM167A (11723789_a_at) / Fold change /veh FAM167A (11723789_a_at) / RFU FAM26E (11764081_at) / Fold change /veh FAM26E (11764081_at) / RFU ISYNA1 (11749810_s_at) / Fold change /veh ISYNA1 (11749810_s_at) / RFU ACY1 (11761880_at) / Fold change /veh ACY1 (11761880_at) / RFU 11764098_at / Fold change /veh 11764098_at / RFU SAMD14 (11745864_x_at) / Fold change /veh SAMD14 (11745864_x_at) / RFU NPB (11741838_a_at) / Fold change /veh NPB (11741838_a_at) / RFU TMPRSS6 (11731388_a_at) / Fold change /veh TMPRSS6 (11731388_a_at) / RFU KRTAP10-2 (11738614_at) / Fold change /veh KRTAP10-2 (11738614_at) / RFU ARHGAP8 /// PRR5-ARHGAP8 (11727945_x_at) / Fold change /veh ARHGAP8 /// PRR5-ARHGAP8 (11727945_x_at) / RFU KRTAP5-7 /// NADSYN1 (11734609_at) / Fold change /veh KRTAP5-7 /// NADSYN1 (11734609_at) / RFU RASL12 (11751679_a_at) / Fold change /veh RASL12 (11751679_a_at) / RFU CDKN2B (11736163_a_at) / Fold change /veh CDKN2B (11736163_a_at) / RFU PRF1 (11729649_at) / Fold change /veh PRF1 (11729649_at) / RFU, ZNF638 /// ZNF638-IT1 / Fold change vs veh, ZNF638 /// ZNF638-IT1 / RFU, PANK3 / Fold change vs veh, PANK3 / RFU, SH3YL1 / Fold change vs veh, SH3YL1 / RFU, ZEB2 / Fold change vs veh, ZEB2 / RFU, NRIP1 / Fold change vs veh, NRIP1 / RFU, PTTG1IP / Fold change vs veh, PTTG1IP / RFU, CAPN2 / Fold change vs veh, CAPN2 / RFU, MED14 / Fold change vs veh, MED14 / RFU, SNORA58 / Fold change vs veh, SNORA58 / RFU, C1orf63 / Fold change vs veh, C1orf63 / RFU, LRRFIP1 / Fold change vs veh, LRRFIP1 / RFU, NDUFAF7 / Fold change vs veh, NDUFAF7 / RFU, SLC12A2 / Fold change vs veh, SLC12A2 / RFU, IBTK / Fold change vs veh, IBTK / RFU, ESF1 / Fold change vs veh, ESF1 / Fold change vs veh, TMEM50B / RFU, TAOK1 / Fold change vs veh, TAOK1 / RFU, ACBD3 / Fold change vs veh, ACBD3 / RFU, TMA16 / Fold change vs veh, TMA16 / RFU, RWDD3 / Fold change vs veh, RWDD3 / RFU, BCAT1 / Fold change vs veh, BCAT1 / RFU, EDEM3 / Fold change vs veh, EDEM3 / RFU, TMEM33 / Fold change vs veh, TMEM33 / RFU, WDR75 / Fold change vs veh, WDR75 / RFU, AHCTF1 / Fold change vs veh, AHCTF1 / RFU, TFRC / Fold change vs veh, TFRC / RFU, ZDHHC17 / Fold change vs veh, ZDHHC17 / RFU, NOM1 / Fold change vs veh, NOM1 / RFU, ARL8B / Fold change vs veh, ARL8B / RFU, ZBTB11 / Fold change vs veh, ZBTB11 / RFU, TAMM41 / Fold change vs veh, TAMM41 / RFU, KIAA1704 /// LOC100996395 / Fold change vs veh, KIAA1704 /// LOC100996395 / RFU, ING1 / Fold change vs veh, ING1 / RFU, TRMT61B / Fold change vs veh, TRMT61B / RFU, FUBP3 / Fold change vs veh, FUBP3 / RFU, TP53 / Fold change vs veh, TP53 / RFU, TNKS2 / Fold change vs veh, TNKS2 / RFU, ZFP14 / Fold change vs veh, ZFP14 / RFU, ACTR2 / Fold change vs veh, ACTR2 / RFU, PPP3R1 / Fold change vs veh, PPP3R1 / RFU, PIK3R1 / Fold change vs veh, PIK3R1 / RFU, HNRNPA1 / Fold change vs veh, HNRNPA1 / RFU, RNF170 / Fold change vs veh, RNF170 / RFU, ZNF28 / Fold change vs veh, ZNF28 / RFU, RNGTT / Fold change vs veh, RNGTT / RFU, OGT / Fold change vs veh, OGT / RFU, BRD1 / Fold change vs veh, BRD1 / RFU, MARS / Fold change vs veh, MARS / RFU, ZNF655 / Fold change vs veh, ZNF655 / RFU, FAHD1 / Fold change vs veh, FAHD1 / RFU, BDP1 / Fold change vs veh, BDP1 / RFU, LRRCC1 / Fold change vs veh, LRRCC1 / RFU, ARID1A / Fold change vs veh, ARID1A / RFU, ZNF146 / Fold change vs veh, ZNF146 / RFU, ZNF330 / Fold change vs veh, ZNF330 / RFU, GPN3 / Fold change vs veh, GPN3 / RFU, C9orf123 / Fold change vs veh, C9orf123 / RFU, N4BP2L2 / Fold change vs veh, N4BP2L2 / RFU, ARFIP1 / Fold change vs veh, ARFIP1 / RFU, FAM179B / Fold change vs veh, FAM179B / RFU, BCL10 / Fold change vs veh, BCL10 / RFU, UHRF1BP1L / Fold change vs veh, UHRF1BP1L / RFU, BET1 / Fold change vs veh, BET1 / RFU, CNOT2 / Fold change vs veh, CNOT2 / RFU, ZNF268 / Fold change vs veh, ZNF268 / Fold change vs veh, ZNF507 / RFU, DGCR2 / Fold change vs veh, DGCR2 / RFU, WDSUB1 / Fold change vs veh, WDSUB1 / Fold change vs veh, HSP90B1 /// MIR3652 / RFU, ADSS / Fold change vs veh, ADSS / RFU, GK / Fold change vs veh, GK / RFU, ZNF148 / Fold change vs veh, ZNF148 / RFU, TAF9 / Fold change vs veh, TAF9 / RFU, SLC1A5 / Fold change vs veh, SLC1A5 / RFU, SLMO2 / Fold change vs veh, SLMO2 / RFU, ABCC4 / Fold change vs veh, ABCC4 / RFU, LOC101060439 /// RAP1B / Fold change vs veh, LOC101060439 /// RAP1B / RFU, RFX7 / Fold change vs veh, RFX7 / RFU, GTPBP10 / Fold change vs veh, GTPBP10 / RFU, CNEP1R1 / Fold change vs veh, CNEP1R1 / RFU, BIVM-ERCC5 /// ERCC5 / Fold change vs veh, BIVM-ERCC5 /// ERCC5 / RFU, ILF3 / Fold change vs veh, ILF3 / RFU 11762660_at / Fold change /veh 11762660_at / RFU VCAN (11757783_s_at) / Fold change /veh VCAN (11757783_s_at) / RFU DDX43 (11728927_at) / Fold change /veh DDX43 (11728927_at) / RFU KRT8 (11758188_x_at) / Fold change /veh KRT8 (11758188_x_at) / RFU NKD1 (11759106_at) / Fold change /veh NKD1 (11759106_at) / RFU SRD5A1 (11742802_a_at) / Fold change /veh SRD5A1 (11742802_a_at) / RFU TPSAB1 /// TPSB2 (11721975_s_at) / Fold change /veh TPSAB1 /// TPSB2 (11721975_s_at) / RFU GSTM3 (11746129_a_at) / Fold change /veh GSTM3 (11746129_a_at) / RFU IL23R (11737362_x_at) / Fold change /veh IL23R (11737362_x_at) / RFU TMEM51 (11727254_a_at) / Fold change /veh TMEM51 (11727254_a_at) / RFU PIWIL2 (11732686_x_at) / Fold change /veh PIWIL2 (11732686_x_at) / RFU ORM1 (11744905_x_at) / Fold change /veh ORM1 (11744905_x_at) / RFU CCDC152 (11743942_at) / Fold change /veh CCDC152 (11743942_at) / RFU ECM1 (11717891_a_at) / Fold change /veh ECM1 (11717891_a_at) / RFU IL23R (11748794_a_at) / Fold change /veh IL23R (11748794_a_at) / RFU TNFAIP8L3 (11732012_x_at) / Fold change /veh TNFAIP8L3 (11732012_x_at) / RFU MBOAT4 (11741988_at) / Fold change /veh MBOAT4 (11741988_at) / RFU 11764193_at / Fold change /veh 11764193_at / RFU TMEM53 (11763286_at) / Fold change /veh TMEM53 (11763286_at) / RFU MAGEB2 (11727129_at) / Fold change /veh MAGEB2 (11727129_at) / RFU TMEM200A (11744735_a_at) / Fold change /veh TMEM200A (11744735_a_at) / RFU CCDC152 (11751479_a_at) / Fold change /veh CCDC152 (11751479_a_at) / RFU FAM211A (11726209_a_at) / Fold change /veh FAM211A (11726209_a_at) / RFU RGS16 (11746705_a_at) / Fold change /veh RGS16 (11746705_a_at) / RFU VCAN (11755009_s_at) / Fold change /veh VCAN (11755009_s_at) / RFU RHOB (11743442_s_at) / Fold change /veh RHOB (11743442_s_at) / RFU RGS16 (11720943_a_at) / Fold change /veh RGS16 (11720943_a_at) / RFU RGS16 (11720944_at) / Fold change /veh RGS16 (11720944_at) / RFU, VPS4B / Fold change vs veh, VPS4B / RFU, CREB1 / Fold change vs veh, CREB1 / RFU, DNAJC13 / Fold change vs veh, DNAJC13 / RFU, GNAQ / Fold change vs veh, GNAQ / RFU, CDK5R1 / Fold change vs veh, CDK5R1 / RFU, ZRANB3 / Fold change vs veh, ZRANB3 / RFU, CUL4A / Fold change vs veh, CUL4A / RFU, CCNY / Fold change vs veh, CCNY / RFU, UFL1 / Fold change vs veh, UFL1 / RFU, COG3 / Fold change vs veh, COG3 / RFU, DIAPH2 / Fold change vs veh, DIAPH2 / RFU, SKA2 / Fold change vs veh, SKA2 / RFU, AFF3 / Fold change vs veh, AFF3 / RFU, LMF1 / Fold change vs veh, LMF1 / RFU, IPO11 / Fold change vs veh, IPO11 / RFU, DFFB / Fold change vs veh, DFFB / RFU, FOXP1 / Fold change vs veh, FOXP1 / RFU, CARD8 / Fold change vs veh, CARD8 / RFU, STRN3 / Fold change vs veh, STRN3 / RFU, ADK / Fold change vs veh, ADK / RFU, RASSF2 / Fold change vs veh, RASSF2 / RFU, WIPF1 / Fold change vs veh, WIPF1 / RFU, LARP1B / Fold change vs veh, LARP1B / RFU, RASA1 / Fold change vs veh, RASA1 / RFU, RB1 / Fold change vs veh, RB1 / RFU, PPFIA1 / Fold change vs veh, PPFIA1 / RFU, MAT2A / Fold change vs veh, MAT2A / RFU, CCT5 / Fold change vs veh, CCT5 / RFU, WDR92 / Fold change vs veh, WDR92 / RFU, CUX1 / Fold change vs veh, CUX1 / RFU, TTC7A / Fold change vs veh, TTC7A / RFU, TMEM135 / Fold change vs veh, TMEM135 / RFU, DEPTOR / Fold change vs veh, DEPTOR / RFU, CPM / Fold change vs veh, CPM / RFU, DNAJB6 / Fold change vs veh, DNAJB6 / RFU, CACNA2D3 / Fold change vs veh, CACNA2D3 / RFU, DTX4 / Fold change vs veh, DTX4 / RFU, TFCP2 / Fold change vs veh, TFCP2 / RFU, GMCL1 /// GMCL1P1 / Fold change vs veh, GMCL1 /// GMCL1P1 / RFU, AEBP2 / Fold change vs veh, AEBP2 / RFU, SNHG1 /// SNORD22 /// SNORD25 /// SNORD26 /// SNORD27 /// SNORD28 /// SNORD29 /// SNORD31 / Fold change vs veh, SNHG1 /// SNORD22 /// SNORD25 /// SNORD26 /// SNORD27 /// SNORD28 /// SNORD29 /// SNORD31 / Fold change (Aza/veh), C12orf56 (ProbeSet 11735607_a_at) / Fold change (ACY-1035/veh), C12orf56 (ProbeSet 11735607_a_at) / Fold change (Aza/veh), FGFR1OP (ProbeSet 11751329_s_at) / Fold change (ACY-1035/veh), FGFR1OP (ProbeSet 11751329_s_at) / Fold change (Aza/veh), VPS36 (ProbeSet 11739960_a_at) / Fold change (ACY-1035/veh), VPS36 (ProbeSet 11739960_a_at) / RFU SYPL1 (11715823_x_at) / Fold change /veh SYPL1 (11715823_x_at) / RFU IGFBP7 (11715501_s_at) / Fold change /veh IGFBP7 (11715501_s_at) / RFU REEP3 (11722064_at) / Fold change /veh REEP3 (11722064_at) / RFU IGLL1 (11728026_x_at) / Fold change /veh IGLL1 (11728026_x_at): dose or concentration left out as unconfirmed
Conditions: ProbeSet 11750457_a_at; LIST B

## Nc1ncn([C@@H]2O[C@H](CO)[C@@H](O)[C@H]2O)c(=O)n1 [azacitidine]
  RFU, GTPBP10: 30.84 RFU
